Here are results for 40 compounds from patent US8273762B2, “Hexahydro-pyrrolo-isoquinoline compounds” (Janssen Pharmaceutica NV, priority 2005, dated 2012).

Molecules are shown by their SMILES.

The target in one test is T1, cloned human H3 receptor, stably expressed in SK-N-MC cells (Homo sapiens, UniProt Q9Y5N1).
T1 construct: expressed in transfected cells
T1 sequence (Q9Y5N1 whole entry): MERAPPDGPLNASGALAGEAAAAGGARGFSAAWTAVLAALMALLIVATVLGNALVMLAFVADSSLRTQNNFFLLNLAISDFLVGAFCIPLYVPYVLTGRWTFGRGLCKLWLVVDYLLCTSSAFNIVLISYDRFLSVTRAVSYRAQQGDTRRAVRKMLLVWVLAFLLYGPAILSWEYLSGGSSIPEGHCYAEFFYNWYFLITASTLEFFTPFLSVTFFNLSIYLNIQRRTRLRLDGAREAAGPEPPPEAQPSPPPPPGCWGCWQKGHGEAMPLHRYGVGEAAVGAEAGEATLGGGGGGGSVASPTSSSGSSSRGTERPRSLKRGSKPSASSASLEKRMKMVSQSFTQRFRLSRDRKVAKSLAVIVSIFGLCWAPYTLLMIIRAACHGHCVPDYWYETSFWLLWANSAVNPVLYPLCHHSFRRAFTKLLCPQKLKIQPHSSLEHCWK
Briefly: H3 receptor binding (N-[3H]-α-methylhistamine displacement). The note with it: SK-N-MC membranes, 0.8 nM N-[3H]-α-methylhistamine.
Broadly, the Ki is the dissociation constant of the complex between target and ligand, obtained from inhibition or displacement. The low end stands for tighter binding, the high end for weaker binding. `COc1ccc([C@@H]2CN3CCC[C@H]3c3cc(OCCCN4CCOCC4)ccc32)cc1` (racemic) [Example 93] showed a Ki of 5 nM.
Same read-out and setting: for `O=[N+]([O-])c1ccc([C@@H]2CN3CCC[C@H]3c3cccc(OCCCN4CCCCC4)c32)cc1` (relative stereo) [Example 2C, Trans-6-(4-Nitro-phenyl)-7-(3-piperidin-1-yl-propoxy)-1,2,3,5,6,10b-hexahydro-pyrrolo[2,1-a]isoquinoline] the value was 29 nM; for `O=[N+]([O-])c1cccc([C@@H]2CN3CCC[C@H]3c3cc(OCCCN4CCCCC4)ccc32)c1` (relative stereo) [Example 4B, Trans-6-(3-Nitro-phenyl)-9-(3-piperidin-1-yl-propoxy)-1,2,3,5,6,10b-hexahydro-pyrrolo[2,1-a]isoquinoline], 1 nM; for `O=[N+]([O-])c1cccc([C@H]2CN3CCC[C@H]3c3cccc(OCCCN4CCCCC4)c32)c1` (relative stereo) [Example 4C, Cis-6-(3-Nitro-phenyl)-7-(3-piperidin-1-yl-propoxy)-1,2,3,5,6,10b-hexahydro-pyrrolo[2,1-a]isoquinoline], 98 nM.
On to `Cc1ccc([C@@H]2CN3CCC[C@H]3c3cc(OCCCN4CCCCC4)ccc32)cc1` (relative stereo) [Example 5B, Trans-9-(3-Piperidine-1-yl-propoxy)-6-p-tolyl-1,2,3,5,6,10b-hexahydro-pyrrolo[2,1-a]isoquinoline], for which the affinity, expressed as Ki, was 1 nM. Compared with the last compound, the Ki is about 98-fold lower.
On the same count and under the same terms, the same measure for `Cc1ccc([C@@H]2CN3CCC[C@H]3c3cccc(OCCCN4CCCCC4)c32)cc1` (relative stereo) [Example 5C, Trans-7-(3-Piperidine-1-yl-propoxy)-6-p-tolyl-1,2,3,5,6,10b-hexahydro-pyrrolo[2,1-a]isoquinoline]: 85 nM.
Take `Clc1ccc([C@H]2CN3CCC[C@H]3c3cc(OCCCN4CCCCC4)ccc32)cc1Cl` (relative stereo) [Example 6B, Trans-6-(3,4-Dichloro-phenyl)-9-(3-piperidin-1-yl-propoxy)-1,2,3,5,6,10b-hexahydro-pyrrolo[2,1-a]isoquinoline]: the affinity corresponds to a Ki of 1 nM.
The same measure, in the same setting: the same measure for `Clc1ccc([C@H]2CN3CCC[C@H]3c3cccc(OCCCN4CCCCC4)c32)cc1Cl` (relative stereo) [Example 6C]: 76 nM.
Same read-out and setting: for `FC(F)(F)c1ccc([C@@H]2CN3CCC[C@H]3c3cc(OCCCN4CCCCC4)ccc32)cc1` (relative stereo) [Example 7B, Trans-9-(3-Piperidin-1-yl-propoxy)-6-(4-trifluoromethyl-phenyl)-1,2,3,5,6,10b-hexahydro-pyrrolo[2,1-a]isoquinoline] the value was 2 nM.
Same read-out and setting: the same measure for `Clc1ccccc1[C@@H]1CN2CCC[C@H]2c2cccc(OCCCN3CCCCC3)c21` (relative stereo) [Example 12C, Cis-6-(2-Chloro-phenyl)-7-(3-piperidin-1-yl-propoxy)-1,2,3,5,6,10b-hexahydro-pyrrolo[2,1-a]isoquinoline]: 91 nM; for `Clc1ccccc1[C@H]1CN2CCC[C@H]2c2cccc(OCCCN3CCCCC3)c21` (relative stereo) [Example 12D, Trans-6-(2-Chloro-phenyl)-7-(3-piperidin-1-yl-propoxy)-1,2,3,5,6,10b-hexahydro-pyrrolo[2,1-a]isoquinoline]: 74 nM; for `Fc1ccc([C@@H]2CN3CCC[C@H]3c3cccc(OCCCN4CCCCC4)c32)cc1` (relative stereo) [Example 14C]: 200 nM.
With `c1cc([C@@H]2CN3CCC[C@H]3c3cc(OCCCN4CCCCC4)ccc32)ccn1` (relative stereo) [Example 27A, Cis-9-(3-Piperidin-1-yl-propoxy)-6-pyridin-4-yl-1,2,3,5,6,10b-hexahydro-pyrrolo[2,1-a]isoquinoline], the inhibition constant Ki was 1 nM.
Same read-out and setting: for `c1cc([C@H]2CN3CCC[C@H]3c3cc(OCCCN4CCCCC4)ccc32)ccn1` (relative stereo) [Example 27B, Trans-9-(3-Piperidin-1-yl-propoxy)-6-pyridin-4-yl-1,2,3,5,6,10b-hexahydro-pyrrolo[2,1-a]isoquinoline] the value was 0.3 nM; for `CSc1ccc([C@@H]2CN3CCC[C@H]3c3cc(OCCCN4CCCCC4)ccc32)cc1` (relative stereo) [Example 39B, Trans-6-(4-Methylsulfanyl-phenyl)-9-(3-piperidin-1-yl-propoxy)-1,2,3,5,6,10b-hexahydro-pyrrolo[2,1-a]isoquinoline], 1 nM.
The same measure, in the same setting: for `Brc1ccc([C@H]2CN3CCC[C@H]3c3ccc(OCCCN4CCCCC4)cc32)cc1` (relative stereo) [Example 42, Trans-6-(4-Bromo-phenyl)-8-(3-piperidin-1-yl-propoxy)-1,2,3,5,6,10b-hexahydro-pyrrolo[2,1-a]isoquinoline] the value was 2 nM; for `N#Cc1ccc([C@H]2CN3CCC[C@H]3c3ccc(OCCCN4CCCCC4)cc32)cc1` (relative stereo) [Example 43], 30 nM.
Same read-out and setting: for `c1ccc([C@@H]2CN3CCC[C@H]3c3ccc(OCCCN4CCCCC4)cc32)cc1` (relative stereo) [Example 44] the value was 1 nM; for `c1ccc([C@H]2CN3CCC[C@H]3c3ccc(OCCCN4CCCCC4)cc32)cc1` (relative stereo) [Example 45], 16 nM.
Turning to `c1cn(-c2ccc([C@@H]3CN4CCC[C@H]4c4cc(OCCCN5CCOCC5)ccc43)cc2)cn1` (relative stereo) [Example 48A, Cis-6-(4-Imidazol-1-yl-phenyl)-9-(3-morpholin-4-yl-propoxy)-1,2,3,5,6,10b-hexahydro-pyrrolo[2,1-a]isoquinoline], the inhibition constant (Ki) was 6 nM.
Same read-out and setting: the same measure for `c1cn(-c2ccc([C@H]3CN4CCC[C@H]4c4cc(OCCCN5CCOCC5)ccc43)cc2)cn1` (relative stereo) [Example 48B, Trans-6-(4-Imidazol-1-yl-phenyl)-9-(3-morpholin-4-yl-propoxy)-1,2,3,5,6,10b-hexahydro-pyrrolo[2,1-a]isoquinoline]: 5 nM; for `c1cnn(-c2ccc([C@H]3CN4CCC[C@H]4c4cc(OCCCN5CCOCC5)ccc43)cc2)c1` (relative stereo) [Example 49]: 5 nM; for `c1cnc([C@@H]2CN3CCC[C@H]3c3cc(OCCCN4CCOCC4)ccc32)cn1` (relative stereo) [Example 50A, Cis-9-(3-Morpholin-4-yl-propoxy)-6-pyrazin-2-yl-1,2,3,5,6,10b-hexahydro-pyrrolo[2,1-a]isoquinoline]: 4 nM.
With `c1cnc([C@H]2CN3CCC[C@H]3c3cc(OCCCN4CCOCC4)ccc32)cn1` (relative stereo) [Example 50B, Trans-9-(3-Morpholin-4-yl-propoxy)-6-pyrazin-2-yl-1,2,3,5,6,10b-hexahydro-pyrrolo[2,1-a]isoquinoline], the affinity, expressed as Ki, was 181 nM.
On the same count and under the same terms, the same measure for `Oc1ccc([C@@H]2CN3CCC[C@H]3c3cc(OCCCN4CCOCC4)ccc32)cn1` (relative stereo) [Example 51A, Cis-5-[9-(3-Morpholin-4-yl-propoxy)-1,2,3,5,6,10b-hexahydro-pyrrolo[2,1-a]isoquinolin-6-yl]-pyridin-2-ol]: 3 nM; for `Oc1ccc([C@H]2CN3CCC[C@H]3c3cc(OCCCN4CCOCC4)ccc32)cn1` (relative stereo) [Example 51B, Trans-5-[9-(3-Morpholin-4-yl-propoxy)-1,2,3,5,6,10b-hexahydro-pyrrolo[2,1-a]isoquinolin-6-yl]-pyridin-2-ol]: 5 nM.
Still for that read-out and setting: the same measure for `c1ncc([C@H]2CN3CCC[C@H]3c3cc(OCCCN4CCOCC4)ccc32)s1` (relative stereo) [Example 52]: 4 nM.
Same read-out and setting: for `c1csc([C@H]2CN3CCC[C@H]3c3cc(OCCCN4CCOCC4)ccc32)n1` (relative stereo) [Example 53] the value was 3 nM; for `c1cc([C@H]2CN3CCC[C@H]3c3cc(OCCCN4CCOCC4)ccc32)[nH]n1` (relative stereo) [Example 54], 4 nM.
In turn, `c1ccn2c([C@H]3CN4CCC[C@H]4c4cc(OCCCN5CCOCC5)ccc43)cnc2c1` (relative stereo) [Example 55] yielded a Ki of 2 nM.
`c1cc([C@H]2CN3CCC[C@H]3c3cc(OCCCN4CCOCC4)ccc32)cs1` (relative stereo) [Example 56] showed a Ki of 3 nM. This Ki lies about 1.5-fold higher than the previous one.
The same measure, in the same setting: for `N#Cc1cccc([C@H]2CN3CCC[C@H]3c3cc(OCCCN4CCOCC4)ccc32)c1` (relative stereo) [Example 58] the value was 2 nM; for `c1cncc([C@H]2CN3CCC[C@H]3c3cc(OCCCN4CCOCC4)ccc32)c1` (relative stereo) [Example 59], 2 nM.
Same read-out and setting: the same measure for `c1ccc([C@H]2CN3CCC[C@H]3c3cc(OCCCN4CCOCC4)ccc32)nc1` (relative stereo) [Example 60]: 3 nM; for `FC(F)(F)Sc1ccc([C@H]2CN3CCC[C@H]3c3cc(OCCCN4CCOCC4)ccc32)cc1` (relative stereo) [Example 61]: 29 nM; for `FC(F)(F)Sc1cccc([C@H]2CN3CCC[C@H]3c3cc(OCCCN4CCOCC4)ccc32)c1` (relative stereo) [Example 62]: 6 nM.
On the same count and under the same terms, for `CSc1ccc([C@H]2CN3CCC[C@H]3c3cc(OCCCN4CCOCC4)ccc32)cc1` (relative stereo) [Example 63] the value was 16 nM; for `COc1ccc([C@H]2CN3CCC[C@H]3c3cc(OCCCN4CCOCC4)ccc32)cc1Cl` (relative stereo) [Example 64], 3 nM; for `COc1ccc([C@H]2CN3CCC[C@H]3c3cc(OCCCN4CCOCC4)ccc32)cc1F` (relative stereo) [Example 65], 4 nM.
For the compound `Clc1ccc([C@H]2CN3CCC[C@H]3c3cc(OCCCN4CCCCC4)ccc32)cc1` (relative stereo) [Example 66B, Trans-6-(4-chloro-phenyl)-9-(3-piperidin-1-yl-propoxy)-1,2,3,5,6,10b-hexahydro-pyrrolo[2,1-a]isoquinoline], the Ki amounted to 1 nM.

In the next test the target is T2, human H3 receptor (SK-N-MC cells) (Homo sapiens, UniProt Q9Y5N1).
T2 construct: expressed in transfected cells; host or cells: SK-N-MC sublines with CRE-beta-galactosidase reporter
T2 sequence (Q9Y5N1 whole entry): as above
Briefly: Cyclic AMP accumulation (β-galactosidase reporter, Schild analysis vs histamine). In kind it is cell-based. The note with it: read-out: H3 pA2 (converted).
For `O=[N+]([O-])c1cccc([C@@H]2CN3CCC[C@H]3c3cc(OCCCN4CCCCC4)ccc32)c1` (relative stereo) [Example 4B, Trans-6-(3-Nitro-phenyl)-9-(3-piperidin-1-yl-propoxy)-1,2,3,5,6,10b-hexahydro-pyrrolo[2,1-a]isoquinoline], the Kb is 0.158 nM.
Still for that read-out and setting: the same measure for `FC(F)(F)c1ccc([C@@H]2CN3CCC[C@H]3c3cc(OCCCN4CCCCC4)ccc32)cc1` (relative stereo) [Example 7B, Trans-9-(3-Piperidin-1-yl-propoxy)-6-(4-trifluoromethyl-phenyl)-1,2,3,5,6,10b-hexahydro-pyrrolo[2,1-a]isoquinoline]: 6.31 nM.
